The source of these data is patent US20110038885A1, “CHEMOKINE ANALOGS” (priority 2007, published 2011).

Structures are written as SMILES. Bridge positions count the residues as written; N and C are the ends. Square brackets hold non-standard residues; d marks the D form. Peptide text beside a SMILES is read from it. * marks the point of attachment. Ac6c = NC1(C(=O)O)CCCCC1; Octanoyl = CCCCCCCC(=O)*; AEEA = NCCOCCOCC(=O)O; Aoc = NCCCCCCCC(=O)O; Ahx = NCCCCCC(=O)O; X2 = CCCCCCO*

One experiment concerns MCP-1. The experiment is described as follows: In vitro chemotaxis (trans-well migration) v MCP-1. The format is cell-based, human. The method, boiled down:
(§1)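 Trans-well migration toward IL-8 or MCP-1 placed below, with agent added to THP-1 cells (10^4-10^6) in the top well and incubation at 37° C (e.g. 4 hours). MTT absorbance at 595 nm, interpolated on a cell standard curve, gives migrated cell numbers; TGFβ-type negative control and cytotoxicity check included.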

The next experiment has as its system IL-8. Briefly: In vitro chemotaxis, inhibition v IL-8. The format is cell-based, human. Also on record: concentration or dose not given beside the values. Put shortly:
as §1

In the case of `CC[C@H](C)[C@@H]1NC(=O)[C@@H](NC(=O)[C@H](Cc2c[nH]c3ccccc23)NC(=O)[C@H](CCCCN)NC(=O)[C@H](CCC(N)=O)NC(=O)[C@H](CCCCN)NC(=O)[C@@H]2CCCN2C(=O)[C@H](CC(=O)O)NC(=O)[C@@H](N)CC(C)C)CSSC[C@@H](C(N)=O)NC(=O)[C@H](CCC(N)=O)NC1=O` [Example 14, Leu-Asp-Pro-Lys-Gln-Lys-Trp-c(Cys-Ile-Gln-Cys)-NH2] (H-LDPKQKWCIQC-NH2; disulfide 8-11), the EC50 (as a rule, the midpoint of the concentration-response curve) with MCP-1 was 2000 nM. Also, the “v IL-8 inhibition (%)” value with IL-8 is 10.5%.
Take `CC[C@H](C)[C@@H]1NC(=O)[C@H](Cc2c[nH]c3ccccc23)NC(=O)[C@H](CCCCN)NC(=O)[C@H](CCC(N)=O)NC(=O)[C@H](CCCCN)NC(=O)[C@@H]2CCCN2C(=O)[C@@H](N)CSSC[C@@H](C(N)=O)NC(=O)[C@H](CCC(N)=O)NC1=O` [Example 46, c(Cys-Pro-Lys-Gln-Lys-Trp-Ile-Gln-Cys)-NH2] (H-CPKQKWIQC-NH2; disulfide 1-9): the EC50 in the experiment with MCP-1 came to 150 nM. For the same compound, the “v IL-8 inhibition (%)” value in the experiment with IL-8 worked out at 52.4%.
For `CC[C@H](C)[C@@H]1NC(=O)[C@H](Cc2c[nH]c3ccccc23)NC(=O)[C@H](CCCCN)NC(=O)[C@H](CCC(N)=O)NC(=O)[C@H](CCCCN)NC(=O)[C@@H](NC(C)=O)CSSC[C@@H](C(=O)N2CCC[C@@H]2C(=O)N[C@H](CC(=O)O)C(=O)N[C@H](CC(C)C)C(N)=O)NC(=O)[C@H](CCC(N)=O)NC1=O` [Example 157, Ac-c(Cys-Lys-Gln-Lys-Trp-Ile-Gln-Cys)-D-Pro-D-Asp-D-Leu-NH2] (Ac-CKQKWIQC[dP][dD][dL]-NH2; disulfide 1-8), the EC50 with MCP-1 was over 1000 nM. Besides, the “v IL-8 inhibition (%)” value with IL-8 was −15%.
Compound `CC[C@H](C)[C@@H]1NC(=O)[C@H](Cc2c[nH]c3ccccc23)NC(=O)[C@H](CCCCN)NC(=O)[C@H](CCC(N)=O)NC(=O)[C@@H](NC(=O)[C@H](CCCCN)NC(=O)[C@@H]2CCCN2)CSSC[C@@H](C(N)=O)NC(=O)[C@H](CCC(N)=O)NC1=O` [Example 44, Pro-Lys-c(Cys-Gln-Lys-Trp-Ile-Gln-Cys)-NH2] (H-PKCQKWIQC-NH2; disulfide 3-9) showed an EC50 in the experiment on MCP-1 of 1000 nM. Also, the “v IL-8 inhibition (%)” value in the experiment with IL-8 was determined as 12.9%.
For `CCCCCCCC(=O)NCCCC[C@H](NC(=O)[C@H]1CSSC[C@@H](N)C(=O)N[C@H](CCC(N)=O)C(=O)N[C@H]([C@H](C)CC)C(=O)N[C@H](Cc2c[nH]c3ccccc23)C(=O)N[C@H](CCCCN)C(=O)N[C@H](CCC(N)=O)C(=O)N[C@H](CCCCN)C(=O)N2CCC[C@@H]2C(=O)N[C@H](CC(=O)O)C(=O)N[C@H](CC(C)C)C(=O)N1)C(=O)O` [Example 149, c(D-Cys-D-Gln-D-Ile-D-Trp-D-Lys-D-Gln-D-Lys-D-Pro-D-Asp-D-Leu-D-Cys)-Lys(Nε-octanoyl)-OH] (H-[dC][dQ][dI][dW][dK][dQ][dK][dP][dD][dL][dC]K(Octanoyl)-OH; disulfide 1-11), in that order: 66 nM and 106.2%.
As for `CC[C@@H](C)[C@H]1NC(=O)[C@@H](CCC(N)=O)NC(=O)[C@H](N)CSSC[C@H](C(=O)N[C@@H](CC(=O)O)C(=O)NCCCCCCCC(=O)O)NC(=O)[C@@H](CC(C)C)NC(=O)[C@@H](CC(=O)O)NC(=O)[C@H]2CCCN2C(=O)[C@@H](CCCCN)NC(=O)[C@@H](CCC(N)=O)NC(=O)[C@@H](CCCCN)NC(=O)[C@@H](Cc2c[nH]c3ccccc23)NC1=O` [Example 144, c(D-Cys-D-Gln-D-Ile-D-Trp-D-Lys-D-Gln-D-Lys-D-Pro-D-Asp-D-Leu-D-Cys)-Asp-Aoc-OH] (H-[dC][dQ][dI][dW][dK][dQ][dK][dP][dD][dL][dC]D[Aoc]-OH; disulfide 1-11), in the experiment on MCP-1, the response was half-maximal at 3000 nM (EC50). The “v IL-8 inhibition (%)” value with IL-8 came out at 25.4%.
For the compound `CC[C@@H](C)[C@H]1NC(=O)[C@@H](CCC(N)=O)NC(=O)[C@H](N)CSSC[C@H](C(=O)N[C@@H](C(=O)N[C@H](CCC(=O)O)C(=O)NCCCCCCCC(=O)O)C(C)C)NC(=O)[C@@H](CC(C)C)NC(=O)[C@@H](CC(=O)O)NC(=O)[C@H]2CCCN2C(=O)[C@@H](CCCCN)NC(=O)[C@@H](CCC(N)=O)NC(=O)[C@@H](CCCCN)NC(=O)[C@@H](Cc2c[nH]c3ccccc23)NC1=O` [Example 141, c(D-Cys-D-Gln-D-Ile-D-Trp-D-Lys-D-Gln-D-Lys-D-Pro-D-Asp-D-Leu-D-Cys)-D-Val-D-Glu-Aoc-OH] (H-[dC][dQ][dI][dW][dK][dQ][dK][dP][dD][dL][dC][dV][dE][Aoc]-OH; disulfide 1-11), in the experiment on MCP-1, the response was half-maximal at 330 nM (EC50). Further, the “v IL-8 inhibition (%)” value in the experiment with IL-8 is 27.5%.
In the experiment with MCP-1, `CCCCCCOC(=O)C[C@H]1NC(=O)[C@H]2CCCN2C(=O)[C@@H](CCCCN)NC(=O)[C@@H](CCC(N)=O)NC(=O)[C@@H](CCCCN)NC(=O)[C@@H](Cc2c[nH]c3ccccc23)NC(=O)[C@@H]([C@H](C)CC)NC(=O)[C@@H](CCC(N)=O)NC(=O)[C@H](N)CSSC[C@H](C(N)=O)NC(=O)[C@@H](CC(C)C)NC1=O` [Example 161, c(D-Cys-D-Gln-D-Ile-D-Trp-D-Lys-D-Gln-D-Lys-D-Pro-D-Asp(1-hexanol)-D-Leu-D-Cys)-NH2] (H-[dC][dQ][dI][dW][dK][dQ][dK][dP][dD](X2)[dL][dC]-NH2; disulfide 1-11) had a concentration giving a half-maximal response (EC50) of 8 nM. Moreover, the “v IL-8 inhibition (%)” value with IL-8 is on record as 99.8%.
With `CC[C@H](C)[C@@H]1NC(=O)[C@H](Cc2c[nH]c3ccccc23)NC(=O)[C@H](CCCCN)NC(=O)[C@H](CCC(N)=O)NC(=O)[C@@H](NC(=O)[C@H](CCCCN)NC(=O)[C@@H]2CCCN2C(=O)[C@H](CC(=O)O)NC(=O)[C@H](CC(C)C)NC(C)=O)CSSC[C@@H](C(N)=O)NC(=O)[C@H](CCC(N)=O)NC1=O` [Example 22, Ac-Leu-Asp-Pro-Lys-c(Cys-Gln-Lys-Trp-Ile-Gln-Cys)-NH2] (Ac-LDPKCQKWIQC-NH2; disulfide 5-11), a half-maximal effect with MCP-1 (EC50) was put at 900 nM. In the experiment on IL-8, the “v IL-8 inhibition (%)” value is given as 16.8%.
As for `CC[C@H](C)[C@@H]1NC(=O)[C@H](Cc2c[nH]c3ccccc23)NC(=O)[C@H](CCCCN)NC(=O)[C@H](CCC(N)=O)NC(=O)[C@H](CCCCN)NC(=O)[C@@H]2CCCN2C(=O)[C@@H](CC(=O)O)NC(=O)[C@H](CC(C)C)NC(=O)[C@@H](NC(C)=O)CSSC[C@@H](C(N)=O)NC(=O)[C@H](CCC(N)=O)NC1=O` [Example 31, Ac-c(Cys-Leu-D-Asp-Pro-Lys-Gln-Lys-Trp-Ile-Gln-Cys)-NH2] (Ac-CL[dD]PKQKWIQC-NH2; disulfide 1-11), in the experiment with MCP-1, it took 50 nM to reach a half-maximal effect (EC50). Further, in the experiment on IL-8, the “v IL-8 inhibition (%)” value is listed as 95.8%.
The corresponding values for `CC[C@H](C)[C@@H]1NC(=O)[C@H](Cc2c[nH]c3ccccc23)NC(=O)[C@H](CCCCN)NC(=O)[C@H](CCC(N)=O)NC(=O)[C@H](CCCCN)NC(=O)[C@@H]2CCCN2C(=O)[C@H](CC(=O)O)NC(=O)[C@H](CC(C)C)NC(=O)[C@@H](N)CSSC[C@H](C(N)=O)NC(=O)[C@H](CCC(N)=O)NC1=O` [Example 36, c(Cys-Leu-Asp-Pro-Lys-Gln-Lys-Trp-Ile-Gln-D-Cys)-NH2] (H-CLDPKQKWIQ[dC]-NH2; disulfide 1-11) are 600 nM and 21.8%.
For `CC[C@H](C)[C@@H]1NC(=O)[C@H](Cc2c[nH]c3ccccc23)NC(=O)[C@@H](NC(=O)[C@@H](N)CCCCN)CSSC[C@@H](C(N)=O)NC(=O)[C@H](CCC(N)=O)NC1=O` [Example 51, Lys-c(Cys-Trp-Ile-Gln-Cys)-NH2] (H-KCWIQC-NH2; disulfide 2-6), the response in the experiment with MCP-1 was half-maximal at 80 nM (EC50). Further, the “v IL-8 inhibition (%)” value with IL-8 worked out at 115.9%.
The compound `CC[C@@H](C)[C@H]1NC(=O)[C@@H](CCC(N)=O)NC(=O)[C@H](N)CSSC[C@H](C(=O)NCCCCCC(=O)O)NC(=O)[C@@H](CC(C)C)NC(=O)[C@@H](CC(=O)O)NC(=O)[C@H]2CCCN2C(=O)[C@@H](CCCCN)NC(=O)[C@@H](CCC(N)=O)NC(=O)[C@@H](CCCCN)NC(=O)[C@@H](Cc2c[nH]c3ccccc23)NC1=O` [Example 143, c(D-Cys-D-Gln-D-Ile-D-Trp-D-Lys-D-Gln-D-Lys-D-Pro-D-Asp-D-Leu-D-Cys)-Ahx-OH] (H-[dC][dQ][dI][dW][dK][dQ][dK][dP][dD][dL][dC][Ahx]-OH; disulfide 1-11) gave an EC50 in the experiment on MCP-1 of 30 nM. The “v IL-8 inhibition (%)” value in the experiment on IL-8 is recorded as 103.5%.
As for `CCCCCCCC(=O)NCCCC[C@@H]1NC(=O)[C@@H](CC(C)C)NC(=O)[C@@H](CC(=O)O)NC(=O)[C@H]2CCCN2C(=O)[C@@H](CCCCN)NC(=O)[C@@H](CCC(N)=O)NC(=O)[C@@H](CCCCN)NC(=O)[C@@H](Cc2c[nH]c3ccccc23)NC(=O)[C@@H]([C@H](C)CC)NC(=O)[C@@H](CCC(N)=O)NC(=O)[C@H](N)CSSC[C@H](C(N)=O)NC1=O` [Example 153, c(D-Cys-D-Gln-D-Ile-D-Trp-D-Lys-D-Gln-D-Lys-D-Pro-D-Asp-D-Leu-Lys(Nε-octanoyl)-D-Cys)-NH2] (H-[dC][dQ][dI][dW][dK][dQ][dK][dP][dD][dL]K(Octanoyl)[dC]-NH2; disulfide 1-12), in the experiment on MCP-1, the EC50 was over 1000 nM. Besides, in the experiment with IL-8, the “v IL-8 inhibition (%)” value came to 4.1%.
For `CC(=O)N[C@H]1CSSC[C@@H](C(N)=O)NC(=O)[C@H](CCC(N)=O)NC(=O)C2(CCCCC2)NC(=O)[C@H](Cc2c[nH]c3ccccc23)NC(=O)[C@H](CCCCN)NC(=O)[C@H](CCC(N)=O)NC(=O)[C@H](CCCCN)NC(=O)[C@@H]2CCCN2C(=O)[C@H](CC(=O)O)NC(=O)[C@H](CC(C)C)NC1=O` [Example 155, Ac-c(Cys-Leu-Asp-Pro-Lys-Gln-Lys-Trp-A6c-Gln-Cys)-NH2] (Ac-CLDPKQKW[Ac6c]QC-NH2; disulfide 1-11), in that order: over 1000 nM and −1.5%.
For `CC[C@@H](C)[C@H]1NC(=O)[C@@H](CCC(N)=O)NC(=O)[C@H](N)CSSC[C@H](C(=O)NCCOCCOCC(=O)NCCCCCCCC(=O)O)NC(=O)[C@@H](CC(C)C)NC(=O)[C@@H](CC(=O)O)NC(=O)[C@H]2CCCN2C(=O)[C@@H](CCCCN)NC(=O)[C@@H](CCC(N)=O)NC(=O)[C@@H](CCCCN)NC(=O)[C@@H](Cc2c[nH]c3ccccc23)NC1=O` [Example 138, c(D-Cys-D-Gln-D-Ile-D-Trp-D-Lys-D-Gln-D-Lys-D-Pro-D-Asp-D-Leu-D-Cys)-Doc-Aoc-OH] (H-[dC][dQ][dI][dW][dK][dQ][dK][dP][dD][dL][dC][AEEA][Aoc]-OH; disulfide 1-11), in that order: 20 nM and 98.4%.
